From ChEMBL document CHEMBL1157964, “Spasmolytic effects of nonprenylated rotenoid constituents of Boerhaavia diffusa roots” (2006) come the findings set out here.

Activity calls are given as the source filed them. The calls are words filed in the database; no cut-off is given here.

One assay concerns Ileum. The experiment in a line: Antispasmodic activity in guinea pig ileum assessed as inhibition of acetylcholine-induced contraction at 30 ug/mL. Format: functional. The note with it: Cavia porcellus.
For orientation: Emax means the greatest response seen or fitted, relative to the assay's reference. For `COc1ccccc1-c1coc2cc(O)c(C)c(O)c2c1=O`, the maximal effect (Emax) at 30 µg/mL stood at 36.8%.
Consider `COc1cc(O)c2c(c1)O[C@@H]1COc3c(O)cccc3[C@@]1(O)C2=O`, for which the Emax at 30 µg/mL was determined as 19.4%.
For `COC1Oc2cc(O)ccc2-c2c1oc1cc(O)c(C)c(O)c1c2=O` (stereo not given), the outcome was inactive.
The same measure, in the same setting: next, `COc1cc2c(c(O)c1C)C(=O)[C@]1(O)c3cccc(O)c3OC[C@H]1O2`: “inactive”; `COc1cc2oc3c(c(=O)c2c(O)c1C)-c1cccc(O)c1OC3OC` (stereo not given): “inactive”.
On to `O=c1c2c(oc3cc(O)cc(O)c13)C(O)Oc1ccccc1-2` (stereo not given), for which the outcome was inactive.
Consider `COc1cc2oc3c(c(=O)c2c(O)c1C)-c1cccc(O)c1OC3O` (stereo not given) [9-O-METHYL-4-HYDROXYBOERAVINONE B], for which the Emax at 30 µg/mL came out at 100%.
In the case of `COc1cc2oc3c(c(=O)c2c(O)c1O)-c1ccccc1OC3O` (stereo not given) [9-O-METHYL-10-HYDROXYCOCCINEONE B], the Emax at 30 µg/mL came to 36.1%.
With `Cc1c(O)cc2oc3c(c(=O)c2c1O)-c1ccc(O)cc1OC3O` (stereo not given) [BOERAVINONE E], the Emax at 30 µg/mL was 100%.
For the molecule `Cc1c(O)cc2oc3c(=O)oc4cc(O)ccc4c3c(=O)c2c1O` [BOERAVINONE F], the Emax at 30 µg/mL stood at 50%.
Take `COc1cc(O)c2c(=O)c3c(oc2c1)C(OC)Oc1c(O)cccc1-3` (stereo not given) [BOERAVINONE G]: the Emax at 30 µg/mL was found to be 60%.
In the case of `COc1cc2c(c(O)c1OC)C(=O)[C@]1(O)c3ccccc3OC[C@H]1O2` [COCCINEONE E], the Emax at 30 µg/mL stood at 25.2%.
With `COc1ccc(Cc2nccc3cc(OC)c(OC)cc23)cc1OC` [PAPAVERINE], the Emax at 30 µg/mL is 72.3%.

The next assay relates to Ileum. The experiment in a line: Antispasmodic activity in guinea pig ileum assessed as inhibition of acetylcholine-induced contraction at 1 uM. The format is functional, Cavia porcellus. Also noted: scale not given: the % may be the effect or the level left.
Settings: not given
For `COC(=O)C1=C(C)NC(C)=C(C(=O)OC)C1c1ccccc1[N+](=O)[O-]` [NIFEDIPINE], the Activity is 47.3%.

The next assay has as its system Ileum. The experiment in a line: Antispasmodic activity in guinea pig ileum assessed as inhibition of acetylcholine-induced contraction at 10 uM.
Settings: not given
The format is functional, Cavia porcellus. More on the design: scale not given: the % may be the effect or the level left.
`CC(=O)C1=C(O)[C@@H]2[C@H]3c4c[nH]c5cccc(c45)C[C@H]3C(C)(C)N2C1=O` [CYCLOPIAZONIC ACID]: the Activity turned out to be 52.3%.
